Reference: patent US8598383B2, “Pharmaceutical composition for treating or preventing degenerative and inflammatory diseases” (Neurotech Pharmaceuticals Co., Ltd., priority 2006, dated 2013)

Assays:
[1] = tested on: TNF-alpha gene expression in BV2 cell line; test: Suppressing effect on gene expression (RT-PCR), TNF-alpha; format: cell-based; conditions: gene expression vs LPS control, BV2, 24 hours
Protocol: Effects of the 2-hydroxybenzoic acid derivatives on iNOS gene expression in BV2 cell line were evaluated. 100 mm dish was inoculated with 1×10^6 cells of BV2 cell line, and treated with both LPS, inflammation-inducing material, and 1˜100 uM of the 2-hydroxybenzoic acid derivative of the present invention, together, in regular concentration interval. After 24 hours of incubation, RNA was extracted. Extracted RNA was used in reverse transcription and polymerase chain reaction, and expression patterns of TNF-alpha, IL-1beta and iNOS were compared.

[2] = Single-dose toxicity test; format: in vivo; conditions: mouse, in vivo; single dose
Protocol: FIG. 32 is results of single dose toxicity testing of some 2-hydroxybenzoic acid derivatives according to the present invention.
Single-dose toxicities of the 2-hydroxybenzoic acid derivatives were evaluated.

[3] = tested on: AGS cell line (human gastric cancer cells); test: Cell-protecting effect in AGS cells (Helicobacter, sulindac, H2O2, ethanol; MTT); format: cell-based; conditions: most cell death models
Protocol: (§1) FIG. 3 is results showing cell-protecting effect of compound 2 on gastric mucous membrane damage induced by Helicobacter. Helicobacter (43504, 5×10^6 cfu/ml) was administered to cultured AGS (human gastric cancer) cell, alone or with sample having indicated concentration. MTT analysis method was used to evaluate the survival rate of gastric mucous membrane cell 24 hours after administration.
as §1, with “4” for “3”, “sulindac, a NSAID. 100 uM of sulindac” for “Helicobacter. Helicobacter (43504, 5×10^6 cfu/ml)”, “AGS” for “AGS (human gastric cancer)”, “16” for “24”
FIG. 5 is results showing cell-protecting effect of compound 2 on gastric mucous membrane damage induced by H2O2, oxidative stress. Cultured AGS cell was treated with 100 uM of H2O2 for 8 hours, alone or with sample having indicated concentration, and was washed with culture medium. MTT analysis method was used to evaluate the survival rate of gastric mucous membrane cell 24 hours later. […]
Cell-protecting effect of the 2-hydroxybenzoic acid derivative of the present invention was evaluated. […] After than, the absorbance was analyzed by ELISA reader at 540 nm, and the survival rate of gastric mucous membranes cell was calculated.

[4] = tested on: thermal hyperalgesia induced by carrageenan; test: Carrageenan-induced thermal hyperalgesia; format: in vivo, rat
Protocol: FIG. 11 is results showing efficacy of compound 2 through thermal hyperalgesia induced by carrageenan, one of arthritis animal models. 2% carrageenan was intradermally injected into hindpaw of rat to induce thermal hyperalgesia.
Analgesic effect of compound 2, one example of the 2-hydroxybenzoic acid derivative, was evaluated in arthritis model. 2% carrageenan was intradermally injected into left pes of rat, and 3-300 mg/kg of compound 2 was orally administered to evaluate effect of compound 2 on thermal hyperalgesia of arthritis model.

[5] = tested on: TNF-alpha in exudation of air pouch; test: Zymosan air pouch inflammation model, TNF-alpha (ELISA); format: in vivo; conditions: over 30 mg/kg, once oral 1 hour before zymosan, 4 hours later
Protocol: FIG. 12 is results showing efficacy of compound 2 through the levels of TNF-alpha induced by zymosan, one of arthritis animal models. 1% zymosan was administered with air pouch, and compound 2 was once orally administered according to indicated dose 1 hour before administration of zymosan. The level of TNF-alpha in an exudation of air pouch was evaluated by ELISA method 4 hours later.
Anti-inflammation effect of compound 2 in arthritis model was evaluated with zymosan. 0.5 ml of 1% zymosan was administered with air pouch, and 3-300 mg/kg of compound 2 was once orally administered 1 hour before administration of zymosan. Edema, a main symptom of arthritis, and the level of cytokine were observed 4 hours later.

[6] = tested on: brain-blood vessel barrier; test: Brain-blood vessel barrier protection in APP/PS1 mice (Evans blue); format: in vivo, mouse; conditions: chow from 2 to 5 month-old; compound 2 25 mg/kg/day, ibuprofen 62.5 mg/kg/day
Protocol: Damage of brain blood vessel is well known in Alzheimer's disease. […] of 2% Evans blue dye was administered into blood vessel of 5 month-old APP/PS1 dementia mouse.

[7] = tested on: microglia in lumbar ventral horn; test: Microglia activation in G93A ALS mouse (TOMATO Lectin); format: in vivo; conditions: 5 mg/kg/day
Protocol: G93A (Glycine ? Alanine) transgenic mouse having similar pathophysiological characteristics with ALS (amyotrophic lateral sclerosis) human patient was used to evaluate therapeutic effect of drug in ALS, one of main degenerative brain diseases.
Activation degree of microglia (a marker of inflammation in brain disease model) expressed in the lumbar ventral horn of G93A mouse were evaluated with TOMATO Lectin dye. In G93A mouse, microglia was more activated compared to the wild type mouse.

TNF-α and IL-1β mRNA = test: Cytokine mRNA expression in G93A mouse (RT-PCR); format: in vivo; conditions: 5 mg/kg/day in chow, 16 week-old, lumbar segments
Protocol: FIG. 30 is results showing the levels of mRNA of inflammatory cytokines (TNF-α and IL-1β), markers of inflammation, in G93A mouse. RT-PCR (Reverse Transcription-Polymerase Chain Reaction) was used.
Lumbar segments of 16 week-old G93A mice fed with general chow only, and 16 week-old G93A mice fed with chow containing 5 mg/kg/day of compound 2 were extracted and their RNA were separated. The mRNA expression degrees of TNF-α and IL-1β, inflammatory cytokines, were evaluated through RT-PCT.

For `O=C(O)c1cc(NCCc2ccc(C(F)(F)F)cc2)ccc1O` [compound 2, 2-hydroxy-5-[2-(4-trifluoromethyl-phenyl)-ethylamino]-benzoic acid], the inhibition at 100 µM ([1]; Mus musculus, BV-2, 24 h) was 63.2%, the “% Inhibition (in 100 uM) TNF-alpha” value [1] was 63.2% and the LD50 [2] was > 3000 mg/kg. The cell-protecting effect ([3]; 1 uM and 10 uM) was “more than 50%”, the cell-protecting effect ([3]; 100 uM) was “more than 70%” and the “thermal hyperalgesia, comparison with ibuprofen” value ([4]; 100 mg treatment) was “equivalent level of decreasing effect with 50 mg/kg of ibuprofen”. For the same compound, the “reduction of thermal hyperalgesia” value ([4]; 300 mg/kg oral) was “over 90%”, the thermal hyperalgesia ([4]; 3-300 mg/kg oral) was “decreased thermal hyperalgesia in a dose-dependent manner” and the “level of TNF-alpha” value [5] was “decreased the level of TNF-alpha more than control”. The “protecting effect on brain-blood vessel barrier” value [6] was “protecting effects on brain-blood vessel barrier were shown”, the “number and activation degree of microglia” value [7] was “decreased the number and activation degree of microglia” and the “mRNA expression of TNF-α and IL-1β” value (TNF-α and IL-1β mRNA) was “effectively reduced inflammatory cytokines”.
